# Measurements from patent publication US20220364132A1, “METHOD FOR FORMING A STORAGE STABLE H[…] A LIGNO[…]” (Sekab E- Technology AB, priority 2019, published 2022).
# Columns and labels:
# Assay type in all cases: cell-based
# Lactobacillus sp. [1] = test: Storage of a sugar-rich hydrolysate inoculated with Lactobacillus sp., glucose by HPLC
# Protocol: (§1) To test the theory, synthetic media was made containing about 90 g/l glucose, 0.5% sodium phosphate/phosphoric acid buffer (pH 5.5), 0.5 g/l diammonium phosphate, 2 g/l yeast extract and 2 g/l peptone. This solution (45 ml) was added to 50 ml serum bottles, along with a magnetic stirrer bar, and autoclaved, where after sodium sulfite at concentrations of 5, 10, 20 and 40 mM was added, while some bottles had no sulfite added, which served as control (0 mM). […] This culture was incubated at 37° C. for 36 hours and used to inoculate all the serum bottles (10% v/v). The serum bottles were then sealed with an airtight septum and a metal ring clamp and two needles were inserted through the septum to allow for sampling. The serum bottles were placed on a magnetic stirrer plate at room temperature (since storage tanks are typically kept at room temperature), with stirring at 100 rpm. Samples were taken periodically and analyzed for glucose and lactic acid using HPLC. Experiments were performed in triplicate. The experiments were continued for 11 days.
# Storage of sugar-rich hydrolysate with addition of 5-40 mM was performed in accordance with the description of example 2. In this example, the samples were prepared and handled as in example 2. In other words, the “Experiment A” samples in this example are identical to those of example 2, and these were used as a reference for the “Experiment B” and “Experiment C” samples, as well as for validating the results of example 2.
# The “Experiment B” samples were inoculated with a Lactobacillus sp. at time 0 hours, and again after 336 hours. This was done to test the infection resistance of samples that were exposed to more than one culture of Lactobacillus sp; i.e. samples that were re-infected after two weeks.
# The samples in “Experiment C” were stored at ambient room temperature for 2 weeks, after which Lactobacillus was added to the flasks, after 336 hours. Samples were incubated for another 7 days and a total of 21 days as for the other two experiments.
# Lactobacillus = test: Bacterial contamination in a non-separated (non-detoxified) spruce hydrolysate, lactic acid by HPLC; settings: FIG. 2
# Protocol: Non-detoxified spruce hydrolysate (with added 2 g/l yeast extract; 0.5% sodium phosphate; 0.5 g/l diammonium phosphate; 2 g/l peptone and diluted with water to 30 g/l glucose) was filter sterilized and used to represent feed media. An inoculum was prepared using MRS media and the same contaminated sample as used in previous experiments, and was incubated at 37° C. overnight (16 hours). Sodium sulfite was added at concentrations of 0 mM, 5 mM, 10 mM, 20 mM and 40 mM, respectively, to 25 ml serum bottles with 22.5 ml of the feed media. After inoculation, the bottles were placed on a multiple magnetic stirring plate at room temperature, with samples taken periodically and analyzed using HPLC.
# The hydrolysate used may represent a feed stream where no separation of the pretreatment liquid and solid component has taken place. In other words, hydrolysis and fermentation inhibitors are still present in the feed stream.
# Lactobacillus sp. [2] = test: Bacterial contamination in a sugar-rich hydrolysate comprising 10% non-detoxified spruce hydrolysate, glucose by HPLC
# Protocol: as §1
# Experiments in this example were performed according to the description in example 2 with the difference that the sugar-rich hydrolysate contained 10% (v/v) non-detoxified spruce hydrolysate. This was done to simulate sugar-rich hydrolysate with some inhibitory impurities present that may arise from insufficient separation and/or washing.
# In the “Experiment A” samples, serum bottles were inoculated with Lactobacillus sp. at time 0 hours and incubated at room temperature for 21 days. Samples were taken periodically and analyzed for glucose and lactic acid (not shown here) using HPLC.
# In the “Experiment B” samples, serum bottles were inoculated twice—firstly on the first day and again two weeks later, to simulate a re-infection and test the longevity of the inhibitory effect of sodium sulfite.
# In Experiment “C”, the third group of serum bottles were inoculated after two weeks of storage at room temperature and inoculated with Lactobacillus (after 14 days).
# lactic acid bacteria = test: Bacterial contamination in a sugar-rich hydrolysate (synthetic media), glucose and lactic acid by HPLC; settings: 5, 10, 20 and 40 mM, room temperature, 11 days, FIG. 3
# Description: The aim of this experiment was to test the potential of sodium sulfite to control bacterial contamination in the storage tanks which contain sugar-rich hydrolysate streams before they are used in fermentations. The hydrolysate is representative of a hydrolysate according to the present disclosure.
# as §1
smiles,measurement,setting,value
O=S([O-])[O-].[Na+].[Na+] [sodium sulfite],growth of Lactobacillus sp.,"Lactobacillus sp. [1]; 5, 10, 20 and 40 mM, three weeks of incubation",inhibited the growth
same,Glucose,"Lactobacillus sp. [1]; Experiment A, 5 mM, 0 h",83.3 g/L
same,Glucose,"Lactobacillus sp. [1]; Experiment A, 5 mM, 172 h",84.0 g/L
same,Glucose,"Lactobacillus sp. [1]; Experiment A, 5 mM, 340 h",83.5 g/L
same,Glucose,"Lactobacillus sp. [1]; Experiment A, 5 mM, 510 h",83.2 g/L
same,Glucose,"Lactobacillus sp. [1]; Experiment A, 10 mM, 0 h",84.1 g/L
same,Glucose,"Lactobacillus sp. [1]; Experiment A, 10 mM, 172 h",85.3 g/L
same,Glucose,"Lactobacillus sp. [1]; Experiment A, 10 mM, 340 h",82.8 g/L
same,Glucose,"Lactobacillus sp. [1]; Experiment A, 10 mM, 510 h",82.2 g/L
same,Glucose,"Lactobacillus sp. [1]; Experiment A, 20 mM, 0 h",83.7 g/L
same,Glucose,"Lactobacillus sp. [1]; Experiment A, 20 mM, 172 h",85.6 g/L
same,Glucose,"Lactobacillus sp. [1]; Experiment A, 20 mM, 340 h",86.8 g/L
same,Glucose,"Lactobacillus sp. [1]; Experiment A, 20 mM, 510 h",84.7 g/L
same,Glucose,"Lactobacillus sp. [1]; Experiment A, 40 mM, 0 h",81.5 g/L
same,Glucose,"Lactobacillus sp. [1]; Experiment A, 40 mM, 172 h",83.2 g/L
same,Glucose,"Lactobacillus sp. [1]; Experiment A, 40 mM, 340 h",83.2 g/L
same,Glucose,"Lactobacillus sp. [1]; Experiment A, 40 mM, 510 h",83.6 g/L
same,glucose consumption,"Lactobacillus sp. [1]; Experiment A, flasks with added sodium sulfite, three weeks",no glucose consumption
same,bacterial growth,"Lactobacillus sp. [1]; Experiment B (inoculated at 0 h and 336 h), 5 mM or more, 21 days",No signs of bacterial growth
same,Glucose,"Lactobacillus sp. [1]; Experiment B, 5 mM, 0 h",82.3 g/L
same,Glucose,"Lactobacillus sp. [1]; Experiment B, 5 mM, 172 h",82.9 g/L
same,Glucose,"Lactobacillus sp. [1]; Experiment B, 5 mM, 340 h",82.6 g/L
same,Glucose,"Lactobacillus sp. [1]; Experiment B, 5 mM, 510 h",78.3 g/L
same,Glucose,"Lactobacillus sp. [1]; Experiment B, 10 mM, 0 h",82.9 g/L
same,Glucose,"Lactobacillus sp. [1]; Experiment B, 10 mM, 172 h",84.3 g/L
same,Glucose,"Lactobacillus sp. [1]; Experiment B, 10 mM, 340 h",81.5 g/L
same,Glucose,"Lactobacillus sp. [1]; Experiment B, 10 mM, 510 h",80.8 g/L
same,Glucose,"Lactobacillus sp. [1]; Experiment B, 20 mM, 0 h",82.8 g/L
same,Glucose,"Lactobacillus sp. [1]; Experiment B, 20 mM, 172 h",74.7 g/L
same,Glucose,"Lactobacillus sp. [1]; Experiment B, 20 mM, 340 h",86.0 g/L
same,Glucose,"Lactobacillus sp. [1]; Experiment B, 20 mM, 510 h",83.3 g/L
same,Glucose,"Lactobacillus sp. [1]; Experiment B, 40 mM, 0 h",80.2 g/L
same,Glucose,"Lactobacillus sp. [1]; Experiment B, 40 mM, 172 h",82.1 g/L
same,Glucose,"Lactobacillus sp. [1]; Experiment B, 40 mM, 340 h",82.0 g/L
same,Glucose,"Lactobacillus sp. [1]; Experiment B, 40 mM, 510 h",82.5 g/L
same,bacterial growth,"Lactobacillus sp. [1]; Experiment C (14 days storage at room temperature, then inoculated), concentrations above 5 mM",no growth was observed
same,Glucose,"Lactobacillus sp. [1]; Experiment C, 5 mM, 0 h",81.2 g/L
same,Glucose,"Lactobacillus sp. [1]; Experiment C, 5 mM, 172 h",81.6 g/L
same,Glucose,"Lactobacillus sp. [1]; Experiment C, 5 mM, 340 h",85.5 g/L
same,Glucose,"Lactobacillus sp. [1]; Experiment C, 5 mM, 510 h",82.0 g/L
same,Glucose,"Lactobacillus sp. [1]; Experiment C, 10 mM, 0 h",82.2 g/L
same,Glucose,"Lactobacillus sp. [1]; Experiment C, 10 mM, 172 h",81.8 g/L
same,Glucose,"Lactobacillus sp. [1]; Experiment C, 10 mM, 340 h",84.0 g/L
same,Glucose,"Lactobacillus sp. [1]; Experiment C, 10 mM, 510 h",82.4 g/L
same,Glucose,"Lactobacillus sp. [1]; Experiment C, 20 mM, 0 h",80.8 g/L
same,Glucose,"Lactobacillus sp. [1]; Experiment C, 20 mM, 172 h",80.3 g/L
same,Glucose,"Lactobacillus sp. [1]; Experiment C, 20 mM, 340 h",84.5 g/L
same,Glucose,"Lactobacillus sp. [1]; Experiment C, 20 mM, 510 h",83.3 g/L
same,Glucose,"Lactobacillus sp. [1]; Experiment C, 40 mM, 0 h",82.0 g/L
same,Glucose,"Lactobacillus sp. [1]; Experiment C, 40 mM, 172 h",81.6 g/L
same,Glucose,"Lactobacillus sp. [1]; Experiment C, 40 mM, 340 h",86.2 g/L
same,Glucose,"Lactobacillus sp. [1]; Experiment C, 40 mM, 510 h",82.0 g/L
same,antimicrobial effect on the hydrolysate,"Lactobacillus; 5 to 40 mM sodium sulfite, room temperature",no antimicrobial effect
same,bacterial growth,Lactobacillus; sodium sulfite added (5 to 40 mM),increased bacterial growth
same,effect on Lactobacillus sp. growth,"Lactobacillus sp. [2]; 40 mM, hydrolysate with 10% (v/v) non-detoxified spruce hydrolysate, Experiments A-C",antimicrobial effect
same,growth relative to sample with no sulfite (detoxification effect),"Lactobacillus sp. [2]; 5-20 mM, hydrolysate with 10% (v/v) non-detoxified spruce hydrolysate",grew faster
same,Glucose,"Lactobacillus sp. [2]; Experiment A, 5 mM, 0 h",83.8 g/L
same,Glucose,"Lactobacillus sp. [2]; Experiment A, 5 mM, 168 h",71.9 g/L
same,Glucose,"Lactobacillus sp. [2]; Experiment A, 5 mM, 336 h",66.3 g/L
same,Glucose,"Lactobacillus sp. [2]; Experiment A, 5 mM, 508 h",65.9 g/L
same,Glucose,"Lactobacillus sp. [2]; Experiment A, 10 mM, 0 h",84.8 g/L
same,Glucose,"Lactobacillus sp. [2]; Experiment A, 10 mM, 168 h",72.9 g/L
same,Glucose,"Lactobacillus sp. [2]; Experiment A, 10 mM, 336 h",64.6 g/L
same,Glucose,"Lactobacillus sp. [2]; Experiment A, 10 mM, 508 h",63.8 g/L
same,Glucose,"Lactobacillus sp. [2]; Experiment A, 20 mM, 0 h",83.4 g/L
same,Glucose,"Lactobacillus sp. [2]; Experiment A, 20 mM, 168 h",75.2 g/L
same,Glucose,"Lactobacillus sp. [2]; Experiment A, 20 mM, 336 h",70.1 g/L
same,Glucose,"Lactobacillus sp. [2]; Experiment A, 20 mM, 508 h",67.2 g/L
same,Glucose,"Lactobacillus sp. [2]; Experiment A, 40 mM, 0 h",82.0 g/L
same,Glucose,"Lactobacillus sp. [2]; Experiment A, 40 mM, 168 h",80.1 g/L
same,Glucose,"Lactobacillus sp. [2]; Experiment A, 40 mM, 336 h",77.0 g/L
same,Glucose,"Lactobacillus sp. [2]; Experiment A, 40 mM, 508 h",82.5 g/L
same,Glucose,"Lactobacillus sp. [2]; Experiment B, 5 mM, 0 h",83.8 g/L
same,Glucose,"Lactobacillus sp. [2]; Experiment B, 5 mM, 168 h",72.6 g/L
same,Glucose,"Lactobacillus sp. [2]; Experiment B, 5 mM, 336 h",66.8 g/L
same,Glucose,"Lactobacillus sp. [2]; Experiment B, 5 mM, 508 h",69.0 g/L
same,Glucose,"Lactobacillus sp. [2]; Experiment B, 10 mM, 0 h",81.7 g/L
same,Glucose,"Lactobacillus sp. [2]; Experiment B, 10 mM, 168 h",71.5 g/L
same,Glucose,"Lactobacillus sp. [2]; Experiment B, 10 mM, 336 h",67.9 g/L
same,Glucose,"Lactobacillus sp. [2]; Experiment B, 10 mM, 508 h",73.4 g/L
same,Glucose,"Lactobacillus sp. [2]; Experiment B, 20 mM, 0 h",83.1 g/L
same,Glucose,"Lactobacillus sp. [2]; Experiment B, 20 mM, 168 h",69.0 g/L
same,Glucose,"Lactobacillus sp. [2]; Experiment B, 20 mM, 336 h",72.4 g/L
same,Glucose,"Lactobacillus sp. [2]; Experiment B, 20 mM, 508 h",72.1 g/L
same,Glucose,"Lactobacillus sp. [2]; Experiment B, 40 mM, 0 h",85.2 g/L
same,Glucose,"Lactobacillus sp. [2]; Experiment B, 40 mM, 168 h",86.6 g/L
same,Glucose,"Lactobacillus sp. [2]; Experiment B, 40 mM, 336 h",86.2 g/L
same,Glucose,"Lactobacillus sp. [2]; Experiment B, 40 mM, 508 h",86.3 g/L
same,Glucose,"Lactobacillus sp. [2]; Experiment C, 5 mM, 0 h",85.4 g/L
same,Glucose,"Lactobacillus sp. [2]; Experiment C, 5 mM, 168 h",84.8 g/L
same,Glucose,"Lactobacillus sp. [2]; Experiment C, 5 mM, 336 h",83.4 g/L
same,Glucose,"Lactobacillus sp. [2]; Experiment C, 5 mM, 508 h",77.1 g/L
same,Glucose,"Lactobacillus sp. [2]; Experiment C, 10 mM, 0 h",84.8 g/L
same,Glucose,"Lactobacillus sp. [2]; Experiment C, 10 mM, 168 h",81.7 g/L
same,Glucose,"Lactobacillus sp. [2]; Experiment C, 10 mM, 336 h",81.9 g/L
same,Glucose,"Lactobacillus sp. [2]; Experiment C, 10 mM, 508 h",75.5 g/L
same,Glucose,"Lactobacillus sp. [2]; Experiment C, 20 mM, 0 h",85.9 g/L
same,Glucose,"Lactobacillus sp. [2]; Experiment C, 20 mM, 168 h",82.3 g/L
same,Glucose,"Lactobacillus sp. [2]; Experiment C, 20 mM, 336 h",83.5 g/L
same,Glucose,"Lactobacillus sp. [2]; Experiment C, 20 mM, 508 h",79.5 g/L
same,Glucose,"Lactobacillus sp. [2]; Experiment C, 40 mM, 0 h",80.9 g/L
same,Glucose,"Lactobacillus sp. [2]; Experiment C, 40 mM, 168 h",81.0 g/L
same,Glucose,"Lactobacillus sp. [2]; Experiment C, 40 mM, 336 h",85.6 g/L
same,Glucose,"Lactobacillus sp. [2]; Experiment C, 40 mM, 508 h",82.6 g/L
same,concentration of lactic acid,lactic acid bacteria,0 g/L
same,growth of lactic acid bacteria,lactic acid bacteria,inhibited the growth
